Data taken from patent publication US9006143B2, “Synergistic fungicidal active substance combinations” (Bayer Intellectual Property GmbH, priority 2003, dated 2015).
Like-named read-outs stand apart in the source and are kept apart here.

Assays:
[1] = tested on: Alternaria mali; assay: Alternaria mali test (in vitro)/microtitre plates; assay type: cell-based; conditions: microtitre plates, 5 days of incubation
[2] = tested on: Sphaerotheca fuliginea; assay: Sphaerotheca fuliginea test (cucumber)/protective; assay type: in vivo; conditions: protective, 7 days after inoculation; for pest or weed control at 2 g/ha: application rate 2 g/ha
[3] = tested on: Phytophthora infestans; assay type: in vivo; conditions: tomato, protective, 3 days after inoculation
[4] = tested on: Pyrenophora teres; assay: Pyrenophora teres test (barley)/curative; conditions: single active compound, application rate 25 g/ha, curative, evaluation 12 days after inoculation
Procedure: Pyrenophora teres Test (Barley)/Curative
To test for curative activity, young plants are sprayed with a conidia suspension of Pyrenophora teres. The plants remain in an incubation cabinet at 20° C. and 100% relative atmospheric humidity for 48 hours.
The plants are placed in a greenhouse at a temperature of about 20° C. and a relative atmospheric humidity of about 80%.
Evaluation is carried out 12 days after the inoculation.

[5] = tested on: Erysiphe graminis f.sp. hordei; assay: Erysiphe test (barley)/protective; assay type: in vivo; conditions: single active compound, application rate 12.5 g/ha, protective, evaluation 6 days after inoculation
[6] = tested on: Gibberella zeae; assay type: in vivo; conditions: single active compound, application rate 62.5 g/ha; barley, curative, evaluation 6 days after inoculation
[7] = tested on: Alternaria solani; assay: Alternaria solani test (tomato)/protective; assay type: in vivo; conditions: protective, 3 days after inoculation
[8] = tested on: Septoria tritici; assay: Septoria tritici test (in vitro)/microtitre plates; assay type: cell-based; conditions: single active compound, application rate 0.01 ppm, microtitre plates, 7 days of incubation
Source text: For inoculation, a spore suspension of Septoria tritici is used.

[9] = tested on: Sphaerotheca fuliginea; assay: Sphaerotheca fuliginea test (gherkin)/protective; assay type: in vivo; conditions: protective, 21 days after inoculation, application rate 8 ppm
[10] = tested on: Puccinia recondita; assay: Puccinia test (wheat)/curative; conditions: single active compound, application rate 62.5 g/ha, curative, evaluation 8 days after inoculation
Procedure: Puccinia Test (Wheat)/Curative
To test for curative activity, young plants are sprayed with a conidia suspension of Puccinia recondita. The plants remain in an incubation cabinet at 20° C. and 100% relative atmospheric humidity for 48 hours.
The plants are placed in a greenhouse at a temperature of about 20° C. and a relative atmospheric humidity of about 80% to promote the development of rust pustules.
Evaluation is carried out 8 days after the inoculation.

[11] = tested on: Botrytis cinerea; assay: Botrytis cinerea test (bean)/protective; conditions: single active compound, application rate 5 g/ha, protective, evaluation 2 days after inoculation
Procedure: After the spray coating has dried on, 2 small pieces of agar colonized by Botrytis cinerea are placed onto each leaf. The inoculated plants are placed in a darkened chamber at about 20° C. and 100% relative atmospheric humidity.
The size of the infected areas on the leaves is evaluated 2 days after the inoculation.

[12] = tested on: Rhizoctonia solani; assay: Rhizoctonia solani test (in vitro)/microtitre plates; conditions: microtitre plates, 5 days of incubation
Procedure: Rhizoctonia solani Test (in vitro)/Microtitre Plates
The microtest is carried out in microtitre plates using potato dextrose broth (PDB) as liquid test medium.
For inoculation, a mycelium suspension of Rhizoctonia solani is used. After 5 days of incubation in the dark and with shaking (10 Hz), for each filled cavity of the microtitre plates, the light transmittance is determined with the aid of a spectrophotometer.

[13] = Podosphaera fuliginea, 168 h, application rate 1 g/ha, read-out: Efficacy in % found
[14] = Podosphaera fuliginea, 168 h, application rate 0.5 g/ha, read-out: Efficacy in % found
[15] = Podosphaera fuliginea, 168 h, read-out: Efficacy in % found
[16] = Podosphaera fuliginea, 168 h, application rate 20 g/ha, read-out: Efficacy in % found

CSC1=N[C@@](C)(c2ccccc2)C(=O)N1Nc1ccccc1 [(19-3) fenamidone]
Efficacy in % found ([1]; 0.003 ppm): 2%

Cc1ccc(N(SC(F)(Cl)Cl)S(=O)(=O)N(C)C)cc1 [(4-2) tolylfluanid]
Efficacy in % found ([2]; application rate 20 g/ha): 0%
Efficacy in % found ([3]; application rate 10 g/ha): 0%

CC(C)(C)C(O)(CCc1ccc(Cl)cc1)Cn1cncn1 (centres unmarked) [(3-17) tebuconazole, tebuconazole, reference compound]
pest or weed control at 1 g/ha [2, 13]: 10%
Efficacy in % found [4]: 29%

Cn1cc(C(=O)Nc2ccc(F)cc2-c2ccc(Cl)c(Cl)c2)c(C(F)F)n1 [(1-1), N-(3′,4′-dichloro-5-fluoro-1,1′-biphenyl-2-yl)-3-(difluoromethyl)-1-methyl-1H-pyrazole-4-carboxamide]
Efficacy in % found [5]: 0%
Efficacy in % found [6]: 40%
pest or weed control at 0.5 g/ha [2, 14]: 0%
pest or weed control at 1 g/ha [2, 13]: 16%
pest or weed control at 2 g/ha [2, 15]: 36%
pest or weed control at 4 g/ha ([2]; Podosphaera fuliginea, 168 h, application rate 4 g/ha, read-out: Efficacy in % found): 30%
Efficacy in % found ([7]; application rate 0.5 g/ha): 42%
Efficacy in % found ([7]; application rate 1 g/ha): 61%
Efficacy in % found ([3]; application rate 0.5 g/ha): 0%
Efficacy in % found ([3]; application rate 1 g/ha): 0%
Efficacy in % found ([3]; application rate 5 g/ha): 0%
Efficacy in % found ([3]; application rate 10 g/ha): 0%
Efficacy in % found ([1]; 0.003 ppm): 25%
Efficacy in % found ([1]; 0.03 ppm): 51%
Efficacy in % found [8]: 15%
Efficacy in % found [9]: 60%
Efficacy in % found [10]: 22%
Efficacy in % found [11]: 54%
Efficacy in % found [4]: 43%
Efficacy in % found ([12]; 0.1 ppm): 40%
Efficacy in % found ([12]; 0.3 ppm): 80%

Cc1ccc(C(C)NC(=O)[C@@H](NC(=O)OC(C)C)C(C)C)cc1 (some centres unmarked) [(5-1) iprovalicarb]
Efficacy in % found ([3]; application rate 5 g/ha): 61%
Efficacy in % found ([3]; application rate 10 g/ha): 64%

CNC(=O)/C(=N/OC)c1ccccc1Oc1ncnc(Oc2cccc(Cl)c2C)c1F [(2-3), (2E)-2-(2-{[6-(3-chloro-2-methylphenoxy)-5-fluoro-4-pyrimidinyl]oxy}phenyl)-2-(methoxyimino)-N-methylethanamide, reference compound]
Efficacy in % found ([7]; application rate 0.5 g/ha): 22%

CO/C=C(/C(=O)OC)c1ccccc1COc1cccc(C(F)(F)F)n1 [(2-11) picoxystrobin, picoxystrobin]
Efficacy in % found [10]: 78%

Cc1cc(C)nc(Nc2ccccc2)n1 [(9-3) pyrimethanil, pyrimethanil, reference compound]
pest or weed control at 20 g/ha [2, 16]: 0%
Efficacy in % found [11]: 4%

CCCOC(=O)NCCCN(C)C [(11-2) propamocarb]
Efficacy in % found ([12]; 0.1 ppm): 25%

CCCC1COC(Cn2cncn2)(c2ccc(Cl)cc2Cl)O1 (centres unmarked) [(3-3) propiconazole]
Efficacy in % found ([7]; application rate 0.5 g/ha): 3%

O=C(Nc1ccccc1)N(Cc1ccc(Cl)cc1)C1CCCC1 [(20-1) pencycuron]
Efficacy in % found ([1]; 0.003 ppm): 11%

CCO[PH](=O)[O-].CCO[PH](=O)[O-].CCO[PH](=O)[O-].[Al+3] [(17-1) fosetyl-Al]
Efficacy in % found ([12]; 0.3 ppm): 24%

N#Cc1ccccc1NC(=O)c1snc(Cl)c1Cl [(6-11), 3,4-dichloro-N-(2-cyanophenyl)isothiazole-5-carboxamide]
Efficacy in % found [10]: 0%

CC(C)CC(C)c1sccc1NC(=O)c1cn(C)nc1C(F)(F)F (centres unmarked) [(6-14) penthiopyrad]
Efficacy in % found ([2]; application rate 4 g/ha): 0%

CSC1=N[C@@](C)(c2ccccc2)C(=O)N1Nc1ccccc1 [(19-13) fenamidone]
Efficacy in % found ([3]; application rate 0.5 g/ha): 41%

COC(=O)[C@@H](C)N(C(=O)Cc1ccccc1)c1c(C)cccc1C [(8-5) benalaxyl-M]
Efficacy in % found ([7]; application rate 0.5 g/ha): 14%

CCCN(CC)CC1COC2(CCC(C(C)(C)C)CC2)O1 (centres unmarked) [(19-10) spiroxamine, spiroxamine, reference compound]
pest or weed control at 20 g/ha [2, 16]: 0%
Efficacy in % found [10]: 0%

COCC(=O)N(c1c(C)cccc1C)[C@H](C)C(=O)OC [(8-4) metalaxyl-M]
Efficacy in % found ([7]; application rate 0.5 g/ha): 7%

C[C@H](Nc1c(-c2c(F)cc(F)cc2F)c(Cl)nc2ncnn12)C(F)(F)F [(22-1), 5-chloro-N-[(1S)-2,2,2-trifluoro-1-methylethyl]-6-(2,4,6-trifluorophenyl)[1,2,4]triazolo-[1,5-a]pyrimidine-7-amine, reference compound]
pest or weed control at 2 g/ha [2, 15]: 11%

[O-][n+]1nc(-n2ccnc2)nc2ccc(Cl)cc21 [(14-3) triazoxide, triazoxide, reference compound]
Efficacy in % found [8]: 29%

OC(Cc1ccccc1Cl)(Cn1ncnc1S)C1(Cl)CC1 (centres unmarked) [(3-15) prothioconazole, prothioconazole, reference compound]
Efficacy in % found [5]: 67%
pest or weed control at 1 g/ha [2, 13]: 43%

CC(C)[C@@H](C)Nc1c(-c2c(F)cc(F)cc2F)c(Cl)nc2ncnn12 [(22-2), 5-chloro-N-[(1R)-1,2-dimethylpropyl]-6-(2,4,6-trifluorophenyl)[1,2,4]triazolo[1,5-a]-pyrimidine-7-amine, reference compound]
pest or weed control at 1 g/ha [2, 13]: 22%

CC(C)CC(C)c1sccc1NC(=O)c1cn(C)nc1C(F)(F)F (centres unmarked) [(6-14), penthiopyrad]
Efficacy in % found [10]: 44%

CC(C)NC(=O)N1CC(=O)N(c2cc(Cl)cc(Cl)c2)C1=O [(12-4) iprodione, iprodione, reference compound]
pest or weed control at 20 g/ha [2, 16]: 0%
Efficacy in % found [11]: 13%

N#Cc1c(Cl)c(Cl)c(Cl)c(C#N)c1Cl [(19-2) chlorothalonil]
Efficacy in % found ([2]; application rate 20 g/ha): 0%

CO/N=C(/C1=NOCCO1)c1ccccc1Oc1ncnc(Oc2ccccc2Cl)c1F [(2-2) fluoxastrobin, fluoxastrobin, reference compound]
pest or weed control at 1 g/ha [2, 13]: 0%
Efficacy in % found [4]: 0%

Cc1nc(C(F)F)c(C(=O)Nc2ccccc2-c2ccc(Br)cc2)s1 [(1-7), N-(4′-bromo-1,1′-biphenyl-2-yl)-4-(difluoromethyl)-2-methyl-1,3-thiazole-5-carboxamide]
pest or weed control at 0.5 g/ha [2, 14]: 0%
pest or weed control at 1 g/ha [2, 13]: 0%
pest or weed control at 2 g/ha [2, 15]: 0%
Efficacy in % found ([7]; application rate 0.5 g/ha): 28%
Efficacy in % found ([7]; application rate 1 g/ha): 63%

COC(=O)N(OC)c1ccccc1COc1ccn(-c2ccc(Cl)cc2)n1 [(2-12) pyraclostrobin, pyraclostrobin, reference compound]
Efficacy in % found [6]: 80%
pest or weed control at 2 g/ha [2, 15]: 0%

CC1(C(=O)Nc2ccc(O)c(Cl)c2Cl)CCCCC1 [(6-6) fenhexamid]
Efficacy in % found ([2]; application rate 20 g/ha): 0%

CC(C)OC(=O)N[C@H](C(=O)N[C@H](C)c1nc2ccc(F)cc2s1)C(C)C [(5-3) benthiavalicarb]
Efficacy in % found ([7]; application rate 1 g/ha): 5%
Efficacy in % found ([3]; application rate 0.5 g/ha): 56%

CO/N=C(/C(=O)OC)c1ccccc1CO/N=C(\C)c1cccc(C(F)(F)F)c1 [(2-4) trifloxystrobin, trifloxystrobin, reference compound]
Efficacy in % found [5]: 78%
pest or weed control at 2 g/ha [2, 15]: 10%

CO/C=C(\C(=O)OC)c1ccccc1Oc1cc(Oc2ccccc2C#N)ncn1 [(2-1) azoxystrobin]
Efficacy in % found ([2]; application rate 0.5 g/ha): 20%

CC(C)(C)C(O)C(Oc1ccc(-c2ccccc2)cc1)n1cncn1 (centres unmarked) [(3-21) bitertanol]
Efficacy in % found ([2]; application rate 1 g/ha): 0%

COC(=O)Nc1nc2ccccc2[nH]1 [(10-3) carbendazim]
Efficacy in % found ([1]; 0.03 ppm): 15%

O=C(Nc1ccccc1-c1ccc(Cl)cc1)c1cccnc1Cl [(6-2) boscalid]
Efficacy in % found [9]: 50%

Fc1ccc(C2(Cn3cncn3)OC2c2ccccc2Cl)cc1 (centres unmarked) [(3-12) epoxyconazole, epoxiconazole]
Efficacy in % found [6]: 0%
